# Assay results published in patent US9403796B2, “Amidomethyl-substituted oxindole derivatives and the use thereof for the treatment of vasopressin-dependent illnesses” (AbbVie Deutschland GmbH & Co. KG, priority 2007, dated 2016).
# What was measured:
# [1] = Determination of the microsomal half-life / microsomal clearance; type: in vitro ADME; details: pH 7.4; human liver microsomes, 0.5 μM test substance
# Description: The metabolic stability of the compounds of the invention was determined in the following assay.
# The test substances were incubated in a concentration of 0.5 μM as follows:
# 0.5 μM test substance are preincubated together with liver microsomes from different species (from rat, human or other species) (0.25 mg of microsomal protein/ml) in 0.05 M potassium phosphate buffer of pH 7.4 in microtiter plates at 37° C. for 5 min. The reaction is started by adding NADPH (1 mg/mL). After 0, 5, 10, 15, 20 and 30 min, 50 μl aliquots are removed, and the reaction is immediately stopped and cooled with the same volume of acetonitrile. The samples are frozen until analyzed. The remaining concentration of undegraded test substance is determined by MSMS. The half-life (T½) is determined from the gradient of the signal of test substance/unit time plot, it being possible to calculate the half-life of the test substance, assuming first order kinetics, from the decrease in the concentration of the compound with time. The microsomal clearance (mCl) is calculated from mCl=In2/T½/(content of microsomal protein in mg/ml)×1000 [ml/min/mg] (modified from references: Di, The Society for Biomolecular Screening, 2003, 453-462; Obach, DMD, 1999 vol. 27. N 11, 1350-1359).
# [2] = molecular target: human vasopressin V1a receptor (Homo sapiens, UniProt P37288); assay: Vasopressin V1a receptor binding assay; details: selectivity quotient, human V1a vs human V1b
# Chain of human vasopressin V1a receptor (P37288 whole entry): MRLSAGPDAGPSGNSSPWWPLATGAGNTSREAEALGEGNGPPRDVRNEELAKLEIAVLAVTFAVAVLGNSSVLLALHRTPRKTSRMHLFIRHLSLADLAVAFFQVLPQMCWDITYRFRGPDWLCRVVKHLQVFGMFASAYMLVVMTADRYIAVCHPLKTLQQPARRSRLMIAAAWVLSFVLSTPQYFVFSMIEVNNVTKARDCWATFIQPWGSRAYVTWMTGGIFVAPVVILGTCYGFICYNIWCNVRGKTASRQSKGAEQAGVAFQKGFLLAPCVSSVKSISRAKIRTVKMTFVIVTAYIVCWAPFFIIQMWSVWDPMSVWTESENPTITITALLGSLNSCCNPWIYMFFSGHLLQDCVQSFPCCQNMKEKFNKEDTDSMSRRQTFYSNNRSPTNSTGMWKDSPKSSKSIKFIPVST
# [3] = molecular target: T1, human vasopressin V1b receptor (Homo sapiens, UniProt P47901); assay: Vasopressin V1b receptor binding assay; details: CHO-K1 membranes, 3H-AVP displacement
# T1 construct: expressed in transfected cells; host or cells: CHO-K1 (cell line hV1b_3H2_CHO), membrane preparation
# T1 sequence (P47901 1-424): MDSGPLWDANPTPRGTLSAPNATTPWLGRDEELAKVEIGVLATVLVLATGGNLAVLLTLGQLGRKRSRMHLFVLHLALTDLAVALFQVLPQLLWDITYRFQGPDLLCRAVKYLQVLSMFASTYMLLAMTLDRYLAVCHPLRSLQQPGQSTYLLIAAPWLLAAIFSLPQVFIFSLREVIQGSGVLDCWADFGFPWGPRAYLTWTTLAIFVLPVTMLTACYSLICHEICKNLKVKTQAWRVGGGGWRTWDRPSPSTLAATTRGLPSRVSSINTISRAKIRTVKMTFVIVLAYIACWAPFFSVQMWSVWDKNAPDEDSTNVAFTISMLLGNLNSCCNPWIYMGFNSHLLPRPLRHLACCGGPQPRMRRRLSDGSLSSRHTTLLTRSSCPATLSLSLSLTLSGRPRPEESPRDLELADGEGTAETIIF
# Description: The substance concentration was further diluted 1:5 in the assay mixture (2% DMSO in the mixture).
# The nonspecific binding was determined with […] (Bachem #H1780). All determinations were carried out as triplicate determinations.
Compound,microsomal CLint at 0.5 μM [1],Ki(h-V1a)/Ki(h-V1b) [2],Ki [3]
"CCOc1ncccc1C1(CC(=O)N2CCC(N3CCN(CC)CC3)CC2)C(=O)N(S(=O)(=O)c2ccccc2)c2ccc(C#N)cc21.O=C(O)C(F)(F)F (racemic) [Example 3, (±)-1-Phenylsulfonyl-3-(2-ethoxypyridin-3-yl)-3-{2-[4-(4-ethylpiperazin-1-yl)piperidin-1-yl]-2-oxoethyl}-2-oxo-2,3-dihydro-1H-indole-5-carbonitrile, trifluoroacetic acid salt]",< 100 µL/min/mg,+++ (>30),3 to 30 nM
"CCOc1ncccc1C1(CC(=O)N2CCC(N3CCN(CC)CC3)CC2)C(=O)N(S(=O)(=O)c2ccc(OC)cc2OC)c2ccc(C#N)cc21.O=C(O)C(F)(F)F (racemic) [Example 2, (±)-1-(2,4-Dimethoxyphenylsulfonyl)-3-(2-ethoxypyridin-3-yl)-3-{2-[4-(4-ethylpiperazin-1-yl)piperidin-1-yl]-2-oxoethyl}-2-oxo-2,3-dihydro-1H-indole-5-carbonitrile trifluoroacetic acid salt]",< 100 µL/min/mg,+++ (>30),< 3 nM
"CCOc1ncccc1C1(CC(=O)N2CCC(N3CCN(C)CC3)CC2)C(=O)N(S(=O)(=O)c2ccc(OC)cc2OC)c2ccc(C#N)cc21.O=C(O)C(F)(F)F (racemic) [Example 6, (±)-1-(2,4-Dimethoxyphenylsulfonyl)-3-(2-ethoxypyridin-3-yl)-3-{2-[4-(4-methylpiperazin-1-yl)piperidin-1-yl]-2-oxoethyl}-2-oxo-2,3-dihydro-1H-indole-5-carbonitrile, trifluoroacetic acid salt]",< 100 µL/min/mg,+++ (>30),< 3 nM
"CCOc1ncccc1C1(CC(=O)N2CCC(N3CCN(C)CC3)CC2)C(=O)N(S(=O)(=O)c2ccccc2OC)c2ccc(C#N)cc21.O=C(O)C(F)(F)F (racemic) [Example 5, (±)-3-(2-Ethoxypyridin-3-yl)-1-(2-methoxyphenylsulfonyl)-3-{2-[4-(4-methylpiperazin-1-yl)-piperidin-1-yl]-2-oxoethyl}-2-oxo-2,3-dihydro-1H-indole-5-carbonitrile, trifluoroacetic acid]",100 to 200 µL/min/mg,++ (15-30),3 to 30 nM
"CCOc1ncccc1C1(CC(=O)N2CCN(C3CCN(C)CC3)CC2)C(=O)N(S(=O)(=O)c2ccc(OC)cc2OC)c2ccc(C#N)cc21.O=C(O)C(F)(F)F (racemic) [Example 9, (±)-1-(2,4-Dimethoxyphenylsulfonyl)-3-(2-ethoxypyridin-3-yl)-3-{2-[4-(1-methylpiperidin-4-yl)piperazin-1-yl]-2-oxoethyl}-2-oxo-2,3-dihydro-1H-indole-5-carbonitrile, trifluoroacetic acid salt]",< 100 µL/min/mg,+++ (>30),< 3 nM
"CCOc1ncccc1C1(CC(=O)N2CCC(N3CCN(CC)CC3)CC2)C(=O)N(S(=O)(=O)c2ccccc2OC)c2ccc(C#N)cc21.O=C(O)C(F)(F)F (racemic) [Example 4, (±)-3-(2-Ethoxypyridin-3-yl)-3-{2-[4-(4-ethylpiperazin-1-yl)piperidin-1-yl]-2-oxoethyl}-1-(2-methoxyphenylsulfonyl)-2-oxo-2,3-dihydro-1H-indole-5-carbonitrile, trifluoroacetic acid salt]",100 to 200 µL/min/mg,+++ (>30),3 to 30 nM
"CCOc1ncccc1C1(CC(=O)N2CCN(C3CCN(CC)CC3)CC2)C(=O)N(S(=O)(=O)c2ccc(OC)cc2OC)c2ccc(C#N)cc21 (single isomer, unassigned; (-)) [Example 10B, (−)1-(2,4-Dimethoxyphenylsulfonyl)-3-(2-ethoxypyridin-3-yl)-3-{2-[4-(1-ethylpiperidin-4-yl)-piperazin-1-yl]-2-oxoethyl}-2-oxo-2,3-dihydro-1H-indole-5-carbonitrile]",< 100 µL/min/mg,+++ (>30),< 3 nM
"CCOc1ncccc1C1(CC(=O)N2CCN(C3CCN(C)CC3)CC2)C(=O)N(S(=O)(=O)c2ccccc2OC)c2ccc(C#N)cc21.O=C(O)C(F)(F)F (racemic) [Example 8, (±)-3-(2-Ethoxypyridin-3-yl)-1-(2-methoxyphenylsulfonyl)-3-{2-[4-(1-methylpiperidin-4-yl)-piperazin-1-yl]-2-oxoethyl}-2-oxo-2,3-dihydro-1H-indole-5-carbonitrile, trifluoroacetic acid salt]",< 100 µL/min/mg,+++ (>30),3 to 30 nM
"CCOc1ncccc1C1(CC(=O)N2CCC(N3CCN(C)CC3)CC2)C(=O)N(S(=O)(=O)c2ccccc2)c2ccc(C#N)cc21.O=C(O)C(F)(F)F (racemic) [Example 1, (±)-1-Phenylsulfonyl-3-(2-ethoxypyridin-3-yl)-3-{2-[4-(4-methylpiperazin-1-yl)piperidin-1-yl]-2-oxoethyl}-2-oxo-2,3-dihydro-1H-indole-5-carbonitrile, trifluoroacetic acid salt]",< 100 µL/min/mg,++ (15-30),3 to 30 nM
"CCOc1ncccc1C1(CC(=O)N2CCN(C3CCN(C)CC3)CC2)C(=O)N(S(=O)(=O)c2ccccc2)c2ccc(C#N)cc21.O=C(O)C(F)(F)F (racemic) [Example 7, (±)-1-Phenylsulfonyl-3-(2-ethoxypyridin-3-yl)-3-{2-[4-(1-methylpiperidin-4-yl)piperazin-1-yl]-2-oxoethyl}-2-oxo-2,3-dihydro-1H-indole-5-carbonitrile, trifluoroacetic acid salt]",< 100 µL/min/mg,+++ (>30),3 to 30 nM
